Where two headings read alike, the source gives them in different places.
Tests used:
[1] = system: L-NAME/Angiotensin II/NaCl-treated rats; test: L-NAME/Angiotensin II/NaCl model of cardiac and renal injury (14 days); format: in vivo, Male Wistar rats
Procedure: Animals. Male Wistar rats (n=44), weighing 200 to 225 grams, and obtained from Charles River Laboratories (Wilmington, MA) were used in the study. All animals were housed in a room lighted 12 hours per day at an ambient temperature of 22±1°C. Animals were allowed one week to recover after arrival and had free access to Purina Lab Chow 5001 (Ralston Purina Inc, St. Louis, MO) and tap water until the initiation of the experiment. After initiation of the protocols, animals in all groups were placed in individual metabolic cages, handled and weighed daily. Twenty-four hour fluid intake, food intake and urine output were measured daily. […] On day 14 of L-NAME treatment, animals were decapitated, trunk blood was collected into chilled tubes containing ethylene diamine tetraacetic acid and the heart and kidneys were removed, blotted dry and immediately weighed. […] Drugs. Eplerenone was supplied by G.D. Searle Pharmaceuticals (St. […] Dexamethasone was dissolved in sesame oil and administered as a single subcutaneous dose (12 μg/kg/day) every day. This dose of dexamethasone has been reported to maintain normal weight gain, glomerular filtration rate, and fasting plasma glucose and insulin levels in adrenalectomized rats. Stanton, B., Giebisch G et al. J. Clin. Invest 1985 75:1317-1326. The experiment was concluded on day 14 of L-NAME treatment. […] (Hou J et al. J. Clin. Invest. 1995 96:2469-2477. […] This lower dose induced lesions in stroke-prone spontaneously hypertensive rats. (Rocha R et al. […] Dexamethasone, aldosterone and L-NAME were purchased from Sigma Chemical Co. (St. Louis, MO). […] Surgical Procedure. […] Bilateral adrenalectomy was performed using a dorsolumbar approach, making separate incisions on each side. […] No post operative deaths occurred. Assays and Analyses. Systolic blood pressure was measured in awake animals by tail-cuff plethysmography using a Natsume KN-210 manometer and tachometer (Peninsula Laboratories Inc, Belmont, CA). Rats were warmed at 37°C for 10 minutes and allowed to rest quietly in a Lucite chamber before measurement of blood pressure. Urinary protein concentration was determined in urine collected on the last day of the experiment using the sulfosalicylic acid turbidity method. […] Plasma aldosterone concentration was determined using a standard radioimmunoassay-kit from Diagnostic Products Co. (Los Angeles, CA). Plasma renin activity ("PRA") was determined by radioimmunoassay detection of generated angiotensin I (DiaSorin Inc., Stillwater, MN). Histology. Hearts were stained with collagen specific dye Sirius red for determination of fibrosis as reported elsewhere. (Young M et al. Am. J. Physiol 1995 269:[…]-[…]). Interstitial collagen was determined using an automated image analyzer. The hearts were also stained with hematoxylin and eosin for light microscopic analysis. Two or three slices of different sections of the heart containing both right and left ventricle were analyzed from each animal. […] Glomerular damage, when present, was characterized as the presence of either segmental or global sclerosis with ischemic or thrombotic changes. Renal arterial and arteriolar damage was categorized as the presence of fibrinoid necrosis of the vascular wall. The renal arterial and arteriolar profiles presenting damage were counted and the number of injured vessels per section was divided by the number of glomeruli in the same section in order to normalize for the amount of tissue examined. […] Statistical analysis. Data were tested for normality using the Kolmogorov-Smimov test. Systolic blood pressure was analyzed using repeated measures-analysis of variance for time and treatment group. One-way analysis of variance was used for normally distributed data with one grouping variable. Post-hoc analysis was performed using Newman Keuls multiple-comparison test. Data that were not normally distributed were analyzed with the Kruskal-Wallis test. Subsequently, selected pairwise comparisons were made using the exact Wilcoxon test. […]

[2] = system: patients with hypertension; test: Clinical efficacy in hypertension: randomized double-blind study, cuff and ambulatory blood pressure; format: in vivo
Procedure: A multicenter, randomized, double-blind, parallel group study was conducted in patients with hypertension. […] The study consisted of a two-week pretreatment period for completion of screening procedures and discontinuation of any current antihypertensive medication(s). The screening period was followed by a four-week single-blind placebo lead-in treatment period.
The primary efficacy measure was the change from baseline in cuff diastolic blood pressure measured at trough as compared to placebo. Secondary efficacy measures included changes in cuff assessed trough systolic blood pressure and changes in average 24-hour diastolic and systolic blood pressure assessed by ambulatory blood pressure monitoring. Safety was assessed by conducting routine clinical lab tests, physical exams, ECGs, and monitoring for adverse events.

[3] = system: Volume Expanded Hypertensive Rats; settings: averaged for 24 hours after three weeks
[4] = system: stroke-prone spontaneously hypertensive rats; settings: cited from earlier work
[5] = Food effect pharmacokinetic studies, Japan and Ex-Japan; format: in vivo, Japanese (Japan) and European (Ex-Japan) subjects
Procedure: The Ex-Japan trials included (i) a single dose tolerability trial, and (ii) a multiple dose tolerability trial, and (iii) a food effect study.
Both single dose and multiple dose tolerability trials were conducted in Japan utilizing healthy male Japanese subjects. […] Six subjects who received the 100 mg dose also participated in the food effect treatment arm of the single dose tolerability trial.
Table A-11C contains the geometric least squares means for the fed and fasting regimens, the ratios of means and the corresponding 95% confidence intervals (CI) for the ratios of the means for the Japan and Ex-Japan food effect trials.
Each panel consisted of six subjects who were given eplerenone and two subjects who were given placebo.

[6] = end of experiment, Epl 100 mg/kg/day p.o., ALDO 40 µg/kg/day in adrenalectomized rats

Q: Which “cardiac injury (myocardial necrosis), histology” value ([1]; Figures A-3B, A-4) does the source give for `COC(=O)[C@@H]1CC2=CC(=O)CC[C@]2(C)[C@@]23O[C@@H]2C[C@@]2(C)[C@@H](CC[C@@]24CCC(=O)O4)[C@H]13` [Eplerenone, Pregn-4-ene-7,21-dicarboxylic acid, 9,11-epoxy-17-hydroxy-3-oxo-, γ-lactone, methyl ester, (7α, 11α, 17β)-] here?
A: markedly reduced

Q: What about the HW/BW ([1]; cardiac hypertrophy index, Epl 100 mg/kg/day p.o., ALDO 40 µg/kg/day in adrenalectomized rats) of the same compound?
A: 3.46 ± .05 mg/g

Q: What about the cardiac hypertrophy ([1]; compared to L-NAME/Angiotensin II/NaCl-treated rats) of the same compound?
A: significantly reduced cardiac hypertrophy

Q: And the HW [1, 6]?
A: 1144 ± 4 mg

Q: And the SBP [1, 6]?
A: 177 ± 8 mmHg

Q: And the “urinary protein excretion (24 hour), proteinuria” value ([1]; end of two-week treatment, Figure A-5)?
A: prevented the development of proteinuria

Q: What about the “extent of hypertension observed at the end of the experiment” value ([1]; eplerenone 100 mg/kg/day p.o., Figure A-1) of the same compound?
A: not appreciably influenced

Q: What about the “reduction in renal arteriopathy damage compared to L-NAME/AngII/NaCl treated rats” value ([1]; histopathologic scores, P=0.1 (not significant)) of the same compound?
A: 60%

Q: And the “ABPM DBP, adjusted mean change from baseline to final visit” value (from here on “ABPM DBP, adjusted mean change”) ([2]; 50 mg/day (25 BID))?
A: -4.1 mm Hg

Q: What about the “ABPM SBP, adjusted mean change from baseline to final visit” value (shortened to “ABPM SBP, adjusted mean change”) ([2]; 50 mg/day (25 BID)) of the same compound?
A: -7.5 mm Hg

Q: And the “Cuff SBP, adjusted mean change from baseline to final visit” value (“Cuff SBP, adjusted mean change” below) ([2]; 50 mg/day (25 BID))?
A: -8.1 mm Hg

Q: And the “Cuff DBP, adjusted mean change from baseline to final visit” value (from here on “Cuff DBP, adjusted mean change”) ([2]; 50 mg/day (25 BID), eight weeks)?
A: -4.4 mm Hg

Q: What about the “ABPM DBP, adjusted mean change” value ([2]; 50 mg/day (50 QD)) of the same compound?
A: -5.1 mm Hg

Q: What about the “ABPM SBP, adjusted mean change” value ([2]; 50 mg/day (50 QD)) of the same compound?
A: -6.2 mm Hg

Q: What about the “Cuff DBP, adjusted mean change” value ([2]; 50 mg/day (50 QD)) of the same compound?
A: -4.5 mm Hg

Q: What about the “Cuff SBP, adjusted mean change” value ([2]; 50 mg/day (50 QD)) of the same compound?
A: -4.4 mm Hg

Q: What about the “ABPM DBP, adjusted mean change” value ([2]; 100 mg/day (50 BID)) of the same compound?
A: -6.6 mm Hg

Q: What about the “ABPM SBP, adjusted mean change” value ([2]; 100 mg/day (50 BID)) of the same compound?
A: -11.6 mm Hg

Q: And the “Cuff DBP, adjusted mean change” value ([2]; 100 mg/day (50 BID))?
A: -7.8 mm Hg

Q: And the “Cuff SBP, adjusted mean change” value ([2]; 100 mg/day (50 BID))?
A: -11.7 mm Hg

Q: And the “ABPM DBP, adjusted mean change” value ([2]; 100 mg/day (100 QD))?
A: -5.6 mm Hg

Q: And the “ABPM SBP, adjusted mean change” value ([2]; 100 mg/day (100 QD))?
A: -9.6 mm Hg

Q: What about the “Cuff DBP, adjusted mean change” value ([2]; 100 mg/day (100 QD)) of the same compound?
A: -4.4 mm Hg

Q: And the “Cuff SBP, adjusted mean change” value ([2]; 100 mg/day (100 QD))?
A: -7.9 mm Hg

Q: And the “ABPM DBP, adjusted mean change” value ([2]; 400 mg/day (200 BID))?
A: -9.0 mm Hg

Q: What about the “ABPM SBP, adjusted mean change” value ([2]; 400 mg/day (200 BID)) of the same compound?
A: -16.1 mm Hg

Q: And the “Cuff DBP, adjusted mean change” value ([2]; 400 mg/day (200 BID))?
A: -8.9 mm Hg

Q: And the “Cuff SBP, adjusted mean change” value ([2]; 400 mg/day (200 BID))?
A: -14.8 mm Hg

Q: What about the “ABPM DBP, adjusted mean change” value ([2]; 400 mg/day (400 QD)) of the same compound?
A: -7.7 mm Hg

Q: What about the “ABPM SBP, adjusted mean change” value ([2]; 400 mg/day (400 QD)) of the same compound?
A: -13.7 mm Hg

Q: And the “Cuff DBP, adjusted mean change” value ([2]; 400 mg/day (400 QD))?
A: -8.7 mm Hg

Q: What about the “Cuff SBP, adjusted mean change” value ([2]; 400 mg/day (400 QD)) of the same compound?
A: -15.0 mm Hg

Q: What about the “Peak to trough ratios” value ([2]; QD and BID regimens, all doses) of the same compound?
A: 1.04 - 1.10

Q: And the gynecomastia ([2]; eight-week double-blind treatment)?
A: no reports of gynecomastia

Q: And the tolerability ([2]; incidence of adverse events similar to placebo)?
A: well tolerated

Q: What about the HR ([3]; 100 mg/kg s.c.) of the same compound?
A: 352 ± 4 beats/min

Q: What about the SAP ([3]; 100 mg/kg s.c.) of the same compound?
A: 155 ± 7 mmHg

Q: What about the HR ([3]; 200 mg/kg s.c.) of the same compound?
A: 339 ± 4 beats/min

Q: And the SAP ([3]; 200 mg/kg s.c.)?
A: 174 ± 5 mmHg

Q: What about the “proteinuria, renal lesions and hypertension” value [4] of the same compound?
A: prevented proteinuria and renal lesions but not severe hypertension

Q: And the “AUC (0-lqc), Mean Ratio” value ([5]; Ex-Japan Food Effect Study)?
A: 1.079

Q: What about the “Cmax, Mean Ratio (fed/fasted)” value ([5]; Ex-Japan Food Effect Study) of the same compound?
A: 0.814

Q: What about the “AUC (0-inf), Mean Ratio” value ([5]; Japan Food Effect Study) of the same compound?
A: 1.218

Q: And the “AUC (0-lqc), Mean Ratio” value ([5]; Japan Food Effect Study)?
A: 1.218

Q: What about the “Cmax, Mean Ratio (fed/fasted)” value ([5]; Japan Food Effect Study) of the same compound?
A: 1.157

Q: What about the “AUC (0-inf), Mean Ratio” value ([5]; human, in vivo) of the same compound?
A: 1.079

Reference: patent EP1289507B1, “USE OF AN ALDOSTERONE ANTAGONIST FOR THE TREATMENT OR PROPHYLAXIS OF ALDOSTERONE-MEDIATED PATHOGENIC EFFECTS” (priority 2000, dated 2001)
